The source of these data is patent US20130029967A1, “Fused Imidazo [3,2 - D] Pyrazines as P13 Kinase Inhibitors” (Centro Nacional de Investigaciones Oncologicas (CNIO), priority 2009, published 2013).

In assay [1] the test system is phospho-AKT (Ser473) in Osteosarcoma U2OS cells. The assay can be described thus: PI3K cellular activity, ELISA (phospho-AKT Ser473). It counts as cell-based. As to conditions: Homo sapiens, cellular p-AKT. As to the method:
Cell culture: The cell lines were obtained from the American Type Culture Collection (ATCC). U2OS (human osteosarcoma) was cultured in Dulbecco's modified Eagle's medium (DMEM). PC3 (human prostate carcinoma), MCF7 (human breast cardinoma), HCT116 (human colon carcinoma), […], U251 (human glyoblastoma) were grown in RPMI. All media were supplemented with 10% fetal bovine serum (FBS) (Sigma) and antibiotics-antimycotics. Cell were maintained in a humidified incubator at 37° C. with 5% CO2 and passaged when confluent using trypsin/EDTA.
Activity was measured as endogenous levels of phospho-AKT (Ser473) protein. Osteosarcoma U2OS cells were plated in 96 Poly-D-Lysine coating tissue culture plates (18.000 cells/well). After the treatment with serial dilutions of the compound during 3 h, the cells were fixed directly in the wells with 4% paraformaldehide. After fixing, individual wells went through the same series of steps used for a conventional immunoblot: including blocking with 5% BSA, incubation with 1/1000 of primary antibody-AKT ([…]) in PBS containing 5% BSA at 4° C. overnight (Cell Signalling), washing and incubation with second antibody HRP-anti-mouse IgG for 1 h at RT (Amersham). After the addition of SuperSignal ELISA Femto maximum sensitivity chemiluminescent substrate (Pierce) the results were read in a luminescence plate reader (Victor).
On the technique in general: ELISA stands for enzyme-linked immunosorbent assay.

In assay [2] the target is T1, PI3K (p110α/p85α) (Homo sapiens, UniProt P42336).
T1 construct: purchased Carna Biosciences 07CBS-0402A
The assay can be described thus: PI3K activity assay (ADP Hunter Plus). In kind it is biochemical. The following applies: quantitative results, read-out: PI3K α IC50. The procedure:
The kinase activity was measured by using the commercial ADP Hunter™ Plus assay available from DiscoveRx (#33-016), which is a homogeneous assay to measure the accumulation of ADP, a universal product of kinase activity. […] Reaction was carried out for 1 hour at 25° C. Reagent A and B were sequentially added to the wells and plates were incubated for 30 min at 37° C. […] Values were normalized against the control activity included for each enzyme (i.e., 100% PI3 kinase activity, without compound). These values were plot against the inhibitor concentration and were fit to a sigmoid dose-response curve by using the Graphed software.

Where two headings read alike, the source gives them in different places.

T1 sequence (P42336 whole entry): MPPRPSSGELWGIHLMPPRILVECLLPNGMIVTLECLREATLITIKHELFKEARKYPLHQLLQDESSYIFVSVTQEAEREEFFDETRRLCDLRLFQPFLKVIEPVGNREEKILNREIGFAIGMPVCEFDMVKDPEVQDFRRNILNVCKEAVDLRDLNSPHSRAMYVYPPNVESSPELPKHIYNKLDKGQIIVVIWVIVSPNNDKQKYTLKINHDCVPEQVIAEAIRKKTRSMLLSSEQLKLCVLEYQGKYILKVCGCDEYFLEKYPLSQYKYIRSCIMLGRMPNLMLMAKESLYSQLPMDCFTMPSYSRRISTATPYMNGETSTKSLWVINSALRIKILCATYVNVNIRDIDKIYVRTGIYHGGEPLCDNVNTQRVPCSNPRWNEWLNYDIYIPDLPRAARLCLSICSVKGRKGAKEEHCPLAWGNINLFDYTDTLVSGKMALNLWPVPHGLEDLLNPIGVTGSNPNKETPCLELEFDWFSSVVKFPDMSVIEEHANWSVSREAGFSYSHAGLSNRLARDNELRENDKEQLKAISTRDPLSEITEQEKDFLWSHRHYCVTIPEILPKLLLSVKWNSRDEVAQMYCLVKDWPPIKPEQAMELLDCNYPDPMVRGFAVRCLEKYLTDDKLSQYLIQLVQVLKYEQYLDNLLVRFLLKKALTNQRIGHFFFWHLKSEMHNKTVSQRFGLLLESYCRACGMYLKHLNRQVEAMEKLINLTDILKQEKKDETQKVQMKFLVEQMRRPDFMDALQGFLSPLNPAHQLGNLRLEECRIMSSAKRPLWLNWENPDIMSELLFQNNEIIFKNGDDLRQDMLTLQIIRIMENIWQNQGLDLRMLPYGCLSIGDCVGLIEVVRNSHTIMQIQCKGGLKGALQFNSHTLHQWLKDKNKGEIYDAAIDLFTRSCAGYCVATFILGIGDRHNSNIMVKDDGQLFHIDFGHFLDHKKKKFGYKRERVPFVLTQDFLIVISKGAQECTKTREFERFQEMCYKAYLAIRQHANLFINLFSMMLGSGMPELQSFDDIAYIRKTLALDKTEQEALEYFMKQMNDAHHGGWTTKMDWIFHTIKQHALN
T1 sequence (P27986 whole entry partner): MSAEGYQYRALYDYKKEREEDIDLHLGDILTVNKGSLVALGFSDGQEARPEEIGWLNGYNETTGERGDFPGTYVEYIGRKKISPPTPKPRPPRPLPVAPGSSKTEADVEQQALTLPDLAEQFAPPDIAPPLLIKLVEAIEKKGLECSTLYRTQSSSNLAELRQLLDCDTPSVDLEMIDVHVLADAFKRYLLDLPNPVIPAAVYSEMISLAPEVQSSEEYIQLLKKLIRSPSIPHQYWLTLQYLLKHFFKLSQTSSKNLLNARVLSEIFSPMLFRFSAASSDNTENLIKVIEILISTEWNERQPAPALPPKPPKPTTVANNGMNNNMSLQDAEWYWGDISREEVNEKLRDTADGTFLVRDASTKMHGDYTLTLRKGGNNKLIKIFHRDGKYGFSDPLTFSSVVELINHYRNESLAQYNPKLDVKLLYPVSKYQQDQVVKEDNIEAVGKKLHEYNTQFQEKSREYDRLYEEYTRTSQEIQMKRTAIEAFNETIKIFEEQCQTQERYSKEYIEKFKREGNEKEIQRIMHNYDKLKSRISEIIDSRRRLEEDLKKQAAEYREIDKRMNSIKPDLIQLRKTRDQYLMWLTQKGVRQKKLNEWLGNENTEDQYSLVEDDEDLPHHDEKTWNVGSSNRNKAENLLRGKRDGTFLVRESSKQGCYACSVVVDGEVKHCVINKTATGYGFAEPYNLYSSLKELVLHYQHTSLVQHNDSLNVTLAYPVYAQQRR

Usually IC50 stands for the concentration that gives 50% inhibition. In assay [1], `CCNC(=O)N1CCc2nc3c(N4CCOCC4)nc(-c4cnc(N)nc4)cn3c2C1` [2-38] yielded an IC50 of 1230 nM.
As for `CS(=O)(=O)N1CCc2nc3c(N4CCOCC4)nc(-c4cnc(N)nc4)c(Cl)n3c2C1` [2-49], the IC50 in assay [2] (PI3Kα) was determined as 9 nM; in assay [1], 95 nM.
The like results for `CCCNC(=O)N1CCc2nc3c(N4CCOCC4)nc(-c4cnc(N)nc4)cn3c2C1` [2-53] were, in that order, 62 nM and 564 nM.
The matching figures for `CC(C)S(=O)(=O)N1CCc2nc3c(N4CCOCC4)nc(-c4cnc(N)nc4)cn3c2C1` [2-59]: 77 nM and 853 nM.
`Nc1ncc(-c2cn3c4c(nc3c(N3CCOCC3)n2)CCN(C(=O)NC2CCCC2)C4)cn1` [2-66]: the IC50 in assay [2] (PI3Kα) worked out at 57 nM; in assay [1], 546 nM.
The matching figures for `Nc1ncc(-c2cn3c4c(nc3c(N3CCOCC3)n2)CCN(S(=O)(=O)C2CCCC2)C4)cn1` [2-69]: 23 nM and 450 nM.
The like results for `COc1ccccc1NC(=O)N1CCc2nc3c(N4CCOCC4)nc(-c4cnc(N)nc4)cn3c2C1` [2-72] were, in that order, 47 nM and 473 nM.
The matching figures for `CCS(=O)(=O)N1CCc2nc3c(N4CCOCC4)nc(-c4cnc(N)nc4)cn3c2C1` [2-73]: 29 nM and 236 nM.
In the case of `CN(C)c1ccc(NC(=O)N2CCc3nc4c(N5CCOCC5)nc(-c5cnc(N)nc5)cn4c3C2)cc1` [2-74], the IC50 in assay [2] (PI3Kα) is 74 nM; in assay [1], 888 nM.
The like results for `Nc1ncc(-c2cn3c4c(nc3c(N3CCOCC3)n2)CCN(C(=O)NCc2cccc(F)c2)C4)cn1` [2-83] were, in that order, 25 nM and 497 nM.
For `COCCS(=O)(=O)N1CCc2nc3c(N4CCOCC4)nc(-c4cnc(N)nc4)cn3c2C1` [2-85], the IC50 in assay [2] (PI3Kα) was 54 nM; in assay [1] it was 344 nM.
For `Nc1ncc(-c2cn3c4c(nc3c(N3CCOCC3)n2)CCN(C(=O)NCc2ccccc2F)C4)cn1` [2-90], the values for the IC50 in assay [2] (PI3Kα) and in assay [1] were 46 nM and 302 nM, respectively.
In the case of `Nc1ncc(-c2cn3c4c(nc3c(N3CCOCC3)n2)CCN(C(=O)Nc2cccc(F)c2)C4)cn1` [2-91], the IC50 in assay [2] (PI3Kα) was determined as 75 nM; in assay [1] it was 443 nM.
The like results for `COc1cccc(NC(=O)N2CCc3nc4c(N5CCOCC5)nc(-c5cnc(N)nc5)cn4c3C2)c1` [2-93] were, in that order, 64 nM and 415 nM.
The like results for `Cc1ccc(CNC(=O)N2CCc3nc4c(N5CCOCC5)nc(-c5cnc(N)nc5)cn4c3C2)cc1` [2-94] were, in that order, 37 nM and 260 nM.
As for `COc1ccc(CNC(=O)N2CCc3nc4c(N5CCOCC5)nc(-c5cnc(N)nc5)cn4c3C2)cc1` [2-96], the IC50 stood at 28 nM in assay [2] (PI3Kα) and 385 nM in assay [1].
In the case of `COc1cccc(CNC(=O)N2CCc3nc4c(N5CCOCC5)nc(-c5cnc(N)nc5)cn4c3C2)c1` [2-97], the IC50 in assay [2] (PI3Kα) was found to be 38 nM; in assay [1] it was 491 nM.
The like results for `COc1ccc(NC(=O)N2CCc3nc4c(N5CCOCC5)nc(-c5cnc(N)nc5)cn4c3C2)cc1` [2-102] were, in that order, 70 nM and 541 nM.
The matching figures for `Cc1ccc(NC(=O)N2CCc3nc4c(N5CCOCC5)nc(-c5cnc(N)nc5)cn4c3C2)cc1` [2-105]: 44 nM and 345 nM.
The like results for `CC(C)CS(=O)(=O)N1CCc2nc3c(N4CCOCC4)nc(-c4cnc(N)nc4)cn3c2C1` [2-109] were, in that order, 95 nM and 763 nM.
On to `Nc1ncc(-c2cn3c4c(nc3c(N3CCOCC3)n2)CCC(=O)N4)cn1` [5-11], for which the IC50 is 14 nM in assay [2] and 475 nM in assay [1].
The like results for `CS(=O)(=O)N1CCc2c(nc3c(N4CCOCC4)nc(-c4cnc(N)nc4)c(Cl)n23)C1` [6-17] were, in that order, 33 nM and 246 nM.
As for `Nc1ncc(-c2cn3c4c(nc3c(N3CCOCC3)n2)CN(C(=O)C2CC2)CC4)cn1` [6-24], the figures for the IC50 in assay [2] and in assay [1] were 29 nM and 218 nM, respectively.
